Measurements taken from US7666868B2, “N-sulphonylpyrroles and their use as histone deacetylase inhibitors” (4SC AG, priority 2005, dated 2010).

Tested on: HeLa cervical carcinoma cell line
Test: Cellular cytotoxicity assay (Alamar Blue / Resazurin)
Format: cell-based
Conditions: Homo sapiens; HeLa cells, 48 hours incubation; read-out: IC50 (anti-proliferative/cytotoxic potency)
Description: The anti-proliferative activity of the histone deacetylase inhibitory compounds as described herein, is evaluated with the HeLa cervical carcinoma cell line (ATCC CCL2) using the Alamar Blue (Resazurin) cell viability assay (O'Brien et al. Eur J Biochem 267, 5421-5426, 2000). Resazurin is reduced to the fluorescent resorufin by cellular dehydrogenase activity, correlating with viable, proliferating cells. Test compounds are dissolved as 10 mM solutions in dimethylsulfoxide (DMSO) and subsequently diluted in semi-logarithmic steps. HeLa cells are seeded into 96 well flat bottom plates at a density of 3000 cells per well in a volume of 200 μl per well. 24 hours after seeding 1 μl each of the compound dilutions are added into each well of the 96 Well plate. Each compound dilution is tested as quadruplicates. Wells containing untreated control cells are filled with 200 μl DMEM medium containing 0.5% v:v DMSO. The cells are then incubated with the substances for 48 hours at 37° C. in a humidified atmosphere containing 5% carbon dioxide. To determine the viability of the cells, 20 μl of an Resazurin solution (Sigma; 90 mg/l) are added. After 4 hours incubation at 37° C. the fluorescence is measured at an extinction of 544 nm and an emission of 590 nm. For the calculation of the cell viability the emission value from untreated cells is set as 100% viability and the emission rates of treated cells are set in relation to the values of untreated cells. Viabilites are expressed as % values. The corresponding IC50 values of the compounds for cytotoxic activity are determined from the concentration-effect curves by means of non-linear regression.

Q: `O=C(/C=C/c1ccn(S(=O)(=O)c2ccc(-c3cccc(CN4CCOCC4)c3)cc2)c1)NO` [Compound 64, (E)-N-Hydroxy-3-[1-(3′-morpholin-4-ylmethyl-biphenyl-4-sulfonyl)-1H-pyrrol-3-yl]-acrylamide] was tested. Which IC50 did it give?
A: Its IC50 is 0.014 to 6.7 µM.

Q: Which IC50 does the source give for `O=C(/C=C/c1ccn(S(=O)(=O)c2ccc(-c3ccc4c(c3)OCO4)cc2)c1)NO` [Compound 65, (E)-3-[1-(4-Benzo[1,3]dioxol-5-yl-benzenesulfonyl)-1H-pyrrol-3-yl]-N-hydroxy-acrylamide] here?
A: Its IC50 is 0.014 to 6.7 µM.

Q: Which IC50 does the source give for `Nc1cccc(-c2ccc(S(=O)(=O)n3ccc(/C=C/C(=O)NO)c3)cc2)c1` [Compound 66, (E)-3-[1-(3′-Amino-biphenyl-4-sulfonyl)-1H-pyrrol-3-yl]-N-hydroxy-acrylamide] here?
A: Its IC50 is 0.014 to 6.7 µM.

Q: With `O=C(/C=C/c1ccn(S(=O)(=O)c2ccc(-c3ccc(O)cc3)cc2)c1)NO` [Compound 67, (E)-N-Hydroxy-3-[1-(4′-hydroxy-biphenyl-4-sulfonyl)-1H-pyrrol-3-yl]acrylamide] as the compound, how does the IC50 read?
A: The IC50 was 0.014 to 6.7 µM.

Q: For `CN1CCC(CCOc2ccc(-c3ccc(S(=O)(=O)n4ccc(C=CC(=O)NO)c4)cc3)cc2)CC1` [Compound 68, (E)-N-Hydroxy-3-(1,4′-[2-(1-methyl-piperidin-4-yl)-ethoxy]biphenyl-4-sulfonyl)-1H-pyrrol-3-yl)-acrylamide], which IC50 is on record?
A: Its IC50 is 0.014 to 6.7 µM.

Q: With `O=C(/C=C/c1ccn(S(=O)(=O)c2ccc(-c3ccc4c(c3)CCO4)cc2)c1)NO` [Compound 70, (E)-3-{1-[4-(2,3-Dihydro-benzofuran-5-yl)-benzenesulfonyl]-1H-pyrrol-3-yl}-N-hydroxy-acrylamide] as the compound, how does the IC50 read?
A: The IC50 was 0.014 to 6.7 µM.

Q: Which IC50 does the source give for `O=C(/C=C/c1ccn(S(=O)(=O)c2ccc(-c3ccc(N4CCOCC4)cc3)cc2)c1)NO` [Compound 71, (E)-N-Hydroxy-3-[1-(4′-morpholin-4-yl-biphenyl-4-sulfonyl)-1H-pyrrol-3-yl]-acrylamide] here?
A: The IC50 was 0.014 to 6.7 µM.

Q: With `O=C(/C=C/c1ccn(S(=O)(=O)c2ccc(-c3cccc(OCCCN4CCCC4)c3)cc2)c1)NO` [Compound 72, (E)-N-Hydroxy-3-{1-[3′-(3-pyrrolidin-1-yl-propoxy)-biphenyl-4-sulfonyl]-1H-pyrrol-3-yl}-acrylamide] as the compound, how does the IC50 read?
A: The IC50 was 0.014 to 6.7 µM.

Q: With `CN1CCN(CCCOc2cccc(-c3ccc(S(=O)(=O)n4ccc(/C=C/C(=O)NO)c4)cc3)c2)CC1` [Compound 73, (E)-N-Hydroxy-3-(1-{3′-[3-(4-methyl-piperazin-1-yl)-propoxy]-biphenyl-4-sulfonyl}-1H-pyrrol-3-yl)-acrylamide] as the compound, how does the IC50 read?
A: Its IC50 is 0.014 to 6.7 µM.

Q: How did the IC50 turn out when `O=C(/C=C/c1ccn(S(=O)(=O)c2ccc(-c3cccc(OCCCN4CCOCC4)c3)cc2)c1)NO` [Compound 74, (E)-N-Hydroxy-3-{1-[3′-(3-morpholin-4-yl-propoxy)-biphenyl-4-sulfonyl]-1H-pyrrol-3-yl}-acrylamide] was run?
A: Its IC50 is 0.014 to 6.7 µM.

Q: `CN1CCN(CCOc2ccc(-c3ccc(S(=O)(=O)n4ccc(/C=C/C(=O)NO)c4)cc3)cc2)CC1` [Compound 76, (E)-N-Hydroxy-3-(1-{4′-[2-(4-methyl-piperazin-1-yl)-ethoxy]-biphenyl-4-sulfonyl}-1H-pyrrol-3-yl)-acrylamide] was tested. Which IC50 did it give?
A: The IC50 was 0.014 to 6.7 µM.

Q: How did the IC50 turn out when `O=C(/C=C/c1ccn(S(=O)(=O)c2ccc(-c3ccc(OCCCN4CCOCC4)cc3)cc2)c1)NO` [Compound 78, (E)-N-Hydroxy-3-{1-[4′-(3-morpholin-4-yl-propoxy)-biphenyl-4-sulfonyl]-1H-pyrrol-3-yl}-acrylamide] was run?
A: The IC50 was 0.014 to 6.7 µM.

Q: For `CN1CCN(CCCOc2ccc(-c3ccc(S(=O)(=O)n4ccc(/C=C/C(=O)NO)c4)cc3)cc2)CC1` [Compound 79, (E)-N-Hydroxy-3-(1-{4′-[3-(4-methyl-piperazin-1-yl)-propoxy]-biphenyl-4-sulfonyl}-1H-pyrrol-3-yl)-acrylamide], which IC50 is on record?
A: The IC50 was 0.014 to 6.7 µM.

Q: `O=C(/C=C/c1ccn(S(=O)(=O)c2ccc(-c3cccc(OCCN4CCCC4)c3)cc2)c1)NO` [Compound 80, (E)-N-Hydroxy-3-{1-[3′-(2-pyrrolidin-1-yl-ethoxy)-biphenyl-4-sulfonyl]-1H-pyrrol-3-yl}-acrylamide] was tested. Which IC50 did it give?
A: Its IC50 is 0.014 to 6.7 µM.

Q: `O=C(/C=C/c1ccn(S(=O)(=O)c2ccc(-c3ccc(OCCCN4CCCC4)cc3)cc2)c1)NO` [Compound 81, (E)-N-Hydroxy-3-{1-[4′-(3-pyrrolidin-1-yl-propoxy)-biphenyl-4-sulfonyl]-1H-pyrrol-3-yl}-acrylamide] was tested. Which IC50 did it give?
A: Its IC50 is 0.014 to 6.7 µM.

Q: Which IC50 does the source give for `COc1ccc(-c2ccc(S(=O)(=O)n3ccc(/C=C/C(=O)NO)c3)cc2)cc1` [Compound 82, (E)-N-Hydroxy-3-[1-(4′-methoxy-biphenyl-4-sulfonyl)-1H-pyrrol-3-yl]-acrylamide] here?
A: The IC50 was 0.014 to 6.7 µM.

Q: Which IC50 does the source give for `O=C(/C=C/c1ccn(S(=O)(=O)c2ccc(-c3cn(CCN4CCOCC4)nn3)cc2)c1)NO` [Compound 83, (E)-N-Hydroxy-3-(1-{4-[1-(2-morpholin-4-yl-ethyl)-1H-[1,2,3]triazol-4-yl]-benzenesulfonyl}-1H-pyrrol-3-yl)-acrylamide] here?
A: Its IC50 is 0.014 to 6.7 µM.

Q: Which IC50 does the source give for `O=C(/C=C/c1ccn(S(=O)(=O)c2ccc(-c3ccc(CNC4CCCC4)cc3)cc2)c1)NO` [Compound 84, (E)-3-[1-(4′-Cyclopentylaminomethyl-biphenyl-4-sulfonyl)-1H-pyrrol-3-yl]-N-hydroxy-acrylamide] here?
A: The IC50 was 0.014 to 6.7 µM.

Q: For `O=C(/C=C/c1ccn(S(=O)(=O)c2ccc(-c3cccc(C(F)(F)F)c3)cc2)c1)NO` [Compound 85, (E)-N-Hydroxy-3-[1-(3′-trifluoromethyl-biphenyl-4-sulfonyl)-1H-pyrrol-3-yl]acrylamide], which IC50 is on record?
A: The IC50 was 0.014 to 6.7 µM.

Q: How did the IC50 turn out when `CN(C)Cc1ccc(-c2ccc(S(=O)(=O)n3ccc(/C=C/C(=O)Nc4ccccc4N)c3)cn2)cc1` [Compound 89, (E)-N-(2-Amino-phenyl)-3-{1-[6-(4-dimethylaminomethyl-phenyl)-pyridine-3-sulfonyl]-1H-pyrrol-3-yl}-acrylamide] was run?
A: The IC50 was 0.014 to 6.7 µM.

Q: Which IC50 does the source give for `Cc1nc(-c2ccc(S(=O)(=O)n3ccc(/C=C/C(=O)NO)c3)s2)cs1` [Compound 90, (E)-N-Hydroxy-3-{1-[5-(2-methyl-thiazol-4-yl)-thiophene-2-sulfonyl]-1H-pyrrol-3-yl}-acrylamide] here?
A: Its IC50 is 0.014 to 6.7 µM.

Q: `NCc1ccc(-c2ccccc2)cc1S(=O)(=O)n1ccc(/C=C/C(=O)NO)c1` [Compound 91, (E)-3-[1-(4-Aminomethyl-biphenyl-3-sulfonyl)-1H-pyrrol-3-yl]-N-hydroxy-acrylamide] was tested. Which IC50 did it give?
A: The IC50 was 0.014 to 6.7 µM.

Q: For `O=C(/C=C/c1ccn(S(=O)(=O)c2ccc(-c3ccc(OCCN4CCCC4)cc3)nc2)c1)NO` [Compound 92, (E)-N-Hydroxy-3-(1-{6-[4-(2-pyrrolidin-1-yl-ethoxy)-phenyl]-pyridine-3-sulfonyl}-1H-pyrrol-3-yl)-acrylamide], which IC50 is on record?
A: The IC50 was 0.014 to 6.7 µM.

Q: For `NCc1cccc(-c2ccc(S(=O)(=O)n3ccc(/C=C/C(=O)NO)c3)s2)c1` [Compound 94, (E)-3-{1-[5-(3-Aminomethyl-phenyl)-thiophene-2-sulfonyl]-1H-pyrrol-3-yl}-N-hydroxy-acrylamide], which IC50 is on record?
A: The IC50 was 0.014 to 6.7 µM.

Q: How did the IC50 turn out when `CN(C)Cc1ccc(-c2ccc(S(=O)(=O)n3ccc(/C=C/C(=O)Nc4ccccc4N)c3)s2)cc1` [Compound 95, (E)-N-(2-Amino-phenyl)-3-{1-[5-(4-dimethylaminomethyl-phenyl)-thiophene-2-sulfonyl]-1H-pyrrol-3-yl}-acrylamide] was run?
A: The IC50 was 0.014 to 6.7 µM.

Q: For `CN(C)Cc1cccc(-c2ccc(S(=O)(=O)n3ccc(/C=C/C(=O)Nc4ccccc4N)c3)cc2)c1` [Compound 96, (E)-N-(2-Amino-phenyl)-3-[1-(3′-dimethylaminomethyl-biphenyl-4-sulfonyl)-1H-pyrrol-3-yl]-acrylamide], which IC50 is on record?
A: Its IC50 is 0.014 to 6.7 µM.

Q: Which IC50 does the source give for `CC(=O)NCc1ccc(-c2ccc(S(=O)(=O)n3ccc(/C=C/C(=O)Nc4ccccc4N)c3)cc2)cc1` [Compound 97, (E)-3-{1-[4′-(Acetylamino-methyl)-biphenyl-4-sulfonyl]-1H-pyrrol-3-yl}-N-(2-amino-phenyl)-acrylamide] here?
A: The IC50 was 0.014 to 6.7 µM.

Q: With `CS(=O)(=O)NCc1ccc(-c2ccc(S(=O)(=O)n3ccc(/C=C/C(=O)Nc4ccccc4N)c3)cc2)cc1` [Compound 98, (E)-N-(2-Amino-phenyl)-3-{1-[4′-(methanesulfonylamino-methyl)biphenyl-4-sulfonyl]-1H-pyrrol-3-yl}-acrylamide] as the compound, how does the IC50 read?
A: The IC50 was 0.014 to 6.7 µM.

Q: For `O=C(C=Cc1ccn(S(=O)(=O)c2ccc(-c3ccc(OCCN4CCCC4)cc3)s2)c1)NO` [Compound 99, (E)-N-Hydroxy-3-(1-{5-([4-(2-pyrrolidin-1-yl-ethoxy)-phenyl]-thiophene-2-sulfonyl}-1H-pyrrol-3-yl)-acrylamide], which IC50 is on record?
A: Its IC50 is 0.014 to 6.7 µM.

Q: `CN(C)S(=O)(=O)c1ccc(-c2ccc(S(=O)(=O)n3ccc(/C=C/C(=O)NO)c3)s2)cc1` [Compound 100, (E)-3-{1-[5-(4-Dimethylsulfamoyl-phenyl)-thiophene-2-sulfonyl]-1H-pyrrol-3-yl}-N-hydroxy-acrylamide] was tested. Which IC50 did it give?
A: Its IC50 is 0.014 to 6.7 µM.

Q: Which IC50 does the source give for `CS(=O)(=O)Nc1ccc(-c2cccc(S(=O)(=O)n3ccc(/C=C/C(=O)Nc4ccccc4N)c3)c2)cc1` [Compound 101, (E)-N-(2-Amino-phenyl)-3-[1-(4′-methanesulfonylamino-biphenyl-3-sulfonyl)-1H-pyrrol-3-yl]-acrylamide] here?
A: The IC50 was 0.014 to 6.7 µM.

Q: With `CN(C)Cc1ccc(-c2cccc(S(=O)(=O)n3ccc(/C=C/C(=O)Nc4ccccc4N)c3)c2)cc1` [Compound 102, (E)-N-(2-Amino-phenyl)-3-[1-(4′-dimethylaminomethyl-biphenyl-3-sulfonyl)-1H-pyrrol-3-yl]-acrylamide] as the compound, how does the IC50 read?
A: Its IC50 is 0.014 to 6.7 µM.
